Reference: patent US8063071B2 (GlaxoSmithKline, LLC, priority 2007, dated 2011)
Structures can show the parent of a compound that is named as a salt.

What was measured:
[1] = system: human monocyte stimulated cytokine production (TNF-α); assay: Monocyte assay (LPS-stimulated TNF-α production); assay type: cell-based; details: for IC50: 24 h, 200 ng/mL LPS, TNF-α by ELISA
Outline: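 Human CD14+ monocytes were purified from blood and plated at 1×10^6 cells/mL in RPMI 1640 with 10% FBS. Compound was added 30 min before stimulation with 200 ng/mL LPS (0.1% DMSO final), followed by 24 hrs at 37 C. Supernatant TNF-α was measured by ELISA, and viability by trypan blue exclusion.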

[2] = biological target: T1, Recombinant human IKKβ (residues 1-737) (Homo sapiens, UniProt O14920); assay: IKK2 assay (TR-FRET); assay type: biochemical; details: ATP 1 μM final, read-out: pIC50 against IKK2 (converted)
T1 construct: Recombinant human IKKβ (residues 1-737); GST (C); made in house
T1 sequence (O14920 1-737): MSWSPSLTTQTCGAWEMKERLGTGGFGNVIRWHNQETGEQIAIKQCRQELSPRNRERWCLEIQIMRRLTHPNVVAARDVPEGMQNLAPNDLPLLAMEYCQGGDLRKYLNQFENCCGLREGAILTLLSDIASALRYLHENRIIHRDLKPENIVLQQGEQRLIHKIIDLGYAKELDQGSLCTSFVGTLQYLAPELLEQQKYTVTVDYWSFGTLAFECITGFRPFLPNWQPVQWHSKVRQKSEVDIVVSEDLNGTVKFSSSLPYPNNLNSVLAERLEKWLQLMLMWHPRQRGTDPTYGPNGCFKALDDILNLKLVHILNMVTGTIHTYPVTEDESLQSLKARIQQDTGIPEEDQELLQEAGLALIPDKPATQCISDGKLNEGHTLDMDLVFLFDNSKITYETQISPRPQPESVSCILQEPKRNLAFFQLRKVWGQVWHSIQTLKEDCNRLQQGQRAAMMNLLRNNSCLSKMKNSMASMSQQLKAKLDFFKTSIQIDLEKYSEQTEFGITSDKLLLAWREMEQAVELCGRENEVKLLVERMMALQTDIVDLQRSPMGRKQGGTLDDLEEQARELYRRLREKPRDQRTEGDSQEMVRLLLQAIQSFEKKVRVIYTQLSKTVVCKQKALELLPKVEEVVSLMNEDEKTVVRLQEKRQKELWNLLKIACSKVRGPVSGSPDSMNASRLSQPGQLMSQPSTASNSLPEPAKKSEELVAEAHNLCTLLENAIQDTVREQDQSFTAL
Outline: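 Baculovirus-expressed C-terminal GST-tagged IKKβ (0.5-5 nM final) in HEPES pH 7.4, MgCl2, CHAPS, DTT, BSA with 1.7% DMSO; 25 nM GST-IB substrate and 1 μM ATP, 15 min at room temperature. EDTA stop; phospho-Ser32/36 detected by Eu-antibody/APC-anti-GST TR-FRET, 665/620 nm ratio.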

Row | SMILES | IC50 [1] | IC50 [2] | inhibition at 0.3 µM ([1]; read-out: inhibition at 300 nM in the monocyte assay)
1 | CCS(=O)(=O)N1CCC(c2c[nH]c3c(C(N)=O)cc(-c4cc(CN5CCOCC5)ccc4F)cc23)CC1 [Example 341, 3-[1-(ethylsulfonyl)-4-piperidinyl]-5-[2-fluoro-5-(4-morpholinylmethyl)phenyl]-1H-indole-7-carboxamide trifluoroacetate] | > 1 µM | ≤ 10 µM | 
2 | CCS(=O)(=O)N1CCC(c2c[nH]c3c(C(N)=O)cc(-c4ccc(CNC)s4)cc23)CC1 [Example 103, 3-[1-(ethylsulfonyl)-4-piperidinyl]-5-{5-[(methylamino)methyl]-2-thienyl}-1H-indole-7-carboxamide] | ≤ 1.5 µM | ≤ 10 µM | 
3 | CCCNCc1cc(-c2cc(C(N)=O)c3[nH]cc(C4CCN(S(=O)(=O)CC)CC4)c3c2)cs1 [Example 106, 3-[1-(ethylsulfonyl)-4-piperidinyl]-5-{5-[(propylamino)methyl]-3-thienyl}-1H-indole-7-carboxamide trifluoroacetate] | ≤ 1.5 µM | ≤ 10 µM | 
4 | CCS(=O)(=O)N1CCC(c2c[nH]c3c(C(N)=O)cc(-c4ccc(CNC(C)C)cc4)cc23)CC1 [Example 140, 3-[1-(ethylsulfonyl)-4-piperidinyl]-5-(4-{[(1-methylethyl)amino]methyl}phenyl)-1H-indole-7-carboxamide] | > 1 µM | ≤ 10 µM | 
5 | CCS(=O)(=O)N1CCC(c2c[nH]c3c(C(N)=O)cc(-c4ccc(CNCCCOC)s4)cc23)CC1 [Example 194, 3-[1-(ethylsulfonyl)-4-piperidinyl]-5-[5-({[3-(methyloxy)propyl]amino}methyl)-2-thienyl]-1H-indole-7-carboxamide] | > 1 µM | ≤ 10 µM | 
6 | CCS(=O)(=O)N1CCC(c2c[nH]c3c(C(N)=O)cc(-c4ccc(CNC(=O)C5CC5)cc4)cc23)CC1 [Example 158, 5-(4-{[(cyclopropylcarbonyl)amino]methyl}phenyl)-3-[1-(ethylsulfonyl)-4-piperidinyl]-1H-indole-7-carboxamide] | > 1 µM | ≤ 10 µM | 
7 | CCS(=O)(=O)N1CCC(c2c[nH]c3c(C(N)=O)cc(-c4ccc(CNC(CO)CO)cc4)cc23)CC1 [Example 153, 3-[1-(ethylsulfonyl)-4-piperidinyl]-5-[4-({[2-hydroxy-1-(hydroxymethyl)ethyl]amino}methyl)phenyl]-1H-indole-7-carboxamide trifluoroacetate] | > 1 µM | ≤ 10 µM | 
8 | CCS(=O)(=O)N1CCC(c2c[nH]c3c(C(N)=O)cc(-c4cc(F)cc(CNCC5CC5)c4)cc23)CC1 [Example 322, 5-(3-{[(cyclopropylmethyl)amino]methyl}-5-fluorophenyl)-3-[1-(ethylsulfonyl)-4-piperidinyl]-1H-indole-7-carboxamide trifluoroacetate] | ≤ 1.5 µM | ≤ 10 µM | 
9 | CCS(=O)(=O)N1CCC(c2c[nH]c3c(C(N)=O)cc(-c4cccc(CN5CCCCC5)c4)cc23)CC1 [Example 1, 3-[1-(ethylsulfonyl)-4-piperidinyl]-5-[3-(1-piperidinylmethyl)phenyl]-1H-indole-7-carboxamide] | ≤ 1.5 µM | ≤ 10 µM | 
10 | CCS(=O)(=O)N1CCC(c2c[nH]c3c(C(N)=O)cc(-c4cccc(CNS(=O)(=O)c5ccc(C(C)(C)C)cc5)c4)cc23)CC1 [Example 383, 5-{3-[({[4-(1,1-dimethylethyl)phenyl]sulfonyl}amino)methyl]phenyl}-3-[1-(ethylsulfonyl)-4-piperidinyl]-1H-indole-7-carboxamide] | ≤ 1.5 µM | ≤ 10 µM | 
11 | CCOC(=O)CN(C)Cc1cc(-c2cc(C(N)=O)c3[nH]cc(C4CCN(S(=O)(=O)CC)CC4)c3c2)cs1 [Example 434, ethyl N-[(4-[7-(aminocarbonyl)-3-[1-(ethylsulfonyl)-4-piperidinyl]-1H-indol-5-yl]-2-thienyl)methyl]-N-methylglycinate] | ≤ 1.5 µM | ≤ 10 µM | 
12 | CCS(=O)(=O)N1CCC(c2c[nH]c3c(C(N)=O)cc(-c4cccc(CN[C@H]5CC[C@H](O)CC5)c4)cc23)CC1 [Example 20, 3-[1-(ethylsulfonyl)-4-piperidinyl]-5-(3-{[(trans-4-hydroxycyclohexyl)amino]methyl}phenyl)-1H-indole-7-carboxamide] | ≤ 1.5 µM | ≤ 10 µM | 
13 | CCS(=O)(=O)N1CCC(c2c[nH]c3c(C(N)=O)cc(-c4cccc(CNC(=O)c5ccco5)c4)cc23)CC1 [Example 361, 3-[1-(ethylsulfonyl)-4-piperidinyl]-5-(3-{[(2-furanylcarbonyl)amino]methyl}phenyl)-1H-indole-7-carboxamide trifluoroacetate] | ≤ 1.5 µM | ≤ 10 µM | 
14 | CCS(=O)(=O)N1CCC(c2c[nH]c3c(C(N)=O)cc(-c4csc(CNCc5ccccc5)c4)cc23)CC1 [Example 118, 3-[1-(ethylsulfonyl)-4-piperidinyl]-5-(5-{[(phenylmethyl)amino]methyl}-3-thienyl)-1H-indole-7-carboxamide trifluoroacetate] | > 1 µM | ≤ 10 µM | 
15 | CCS(=O)(=O)N1CCC(c2c[nH]c3c(C(N)=O)cc(-c4cccc(CN(C)CCS(C)(=O)=O)c4)cc23)CC1 [Example 4, 3-[1-(ethylsulfonyl)-4-piperidinyl]-5-[3-({methyl[2-(methylsulfonyl)ethyl]amino}methyl)phenyl]-1H-indole-7-carboxamide] | > 1 µM | ≤ 10 µM | 
16 | CCCN(C)Cc1cc(-c2cc(C(N)=O)c3[nH]cc(C4CCN(S(=O)(=O)C(C)C)CC4)c3c2)cs1 [Example 100, 3-{1-[(1-methylethyl)sulfonyl]-4-piperidinyl}-5-(5-{[methyl(propyl)amino]methyl}-3-thienyl)-1H-indole-7-carboxamide trifluoroacetate] | ≤ 1.5 µM | ≤ 10 µM | 
17 | CC[C@H](C)NCc1cccc(-c2cc(C(N)=O)c3[nH]cc(C4CCN(S(=O)(=O)CC)CC4)c3c2)c1 [Example 157, 3-[1-(ethylsulfonyl)-4-piperidinyl]-5-[3-({[(1S)-1-methylpropyl]amino}methyl)phenyl]-1H-indole-7-carboxamide acetate] | ≤ 1.5 µM | ≤ 10 µM | 
18 | CCS(=O)(=O)N1CCC(c2c[nH]c3c(C(N)=O)cc(-c4ccc(CNC(=O)C5CCC5)cc4)cc23)CC1 [Example 159, 5-(4-{[(cyclobutylcarbonyl)amino]methyl}phenyl)-3-[1-(ethylsulfonyl)-4-piperidinyl]-1H-indole-7-carboxamide] | > 1 µM | ≤ 10 µM | 
19 | CCS(=O)(=O)N1CCC(c2c[nH]c3c(C(N)=O)cc(-c4ccc(N5CCN(C)CC5=O)cc4)cc23)CC1 [Example 388, 3-[1-(ethylsulfonyl)-4-piperidinyl]-5-[4-(4-methyl-2-oxo-1-piperazinyl)phenyl]-1H-indole-7-carboxamide] | > 1 µM | ≤ 10 µM | 
20 | CCS(=O)(=O)N1CCC(c2c[nH]c3c(C(N)=O)cc(-c4cccc(CN[C@@H](CO)C(C)C)c4)cc23)CC1 [Example 18, 3-[1-(ethylsulfonyl)-4-piperidinyl]-5-[3-({[(1R)-1-(hydroxymethyl)-2-methylpropyl]amino}methyl)phenyl]-1H-indole-7-carboxamide] | ≤ 1.5 µM | ≤ 10 µM | 
21 | CCS(=O)(=O)N1CCC(c2c[nH]c3c(C(N)=O)cc(-c4ccc(CN[C@@H](C)C(C)C)cc4)cc23)CC1 [Example 161, 5-[4-({[(1S)-1,2-dimethylpropyl]amino}methyl)phenyl]-3-[1-(ethylsulfonyl)-4-piperidinyl]-1H-indole-7-carboxamide trifluoroacetate] | ≤ 1.5 µM | ≤ 10 µM | 
22 | CCCCNCc1ccc(-c2cc(C(N)=O)c3[nH]cc(C4CCN(S(=O)(=O)CC)CC4)c3c2)s1 [Example 187, 5-{5-[(butylamino)methyl]-2-thienyl}-3-[1-(ethylsulfonyl)-4-piperidinyl]-1H-indole-7-carboxamide] |  | ≤ 10 µM | 0 to 60%
23 | CCN(C)Cc1cc(-c2cc(C(N)=O)c3[nH]cc(C4CCN(S(=O)(=O)CC)CC4)c3c2)cs1 [Example 65, 5-(5-{[ethyl(methyl)amino]methyl}-3-thienyl)-3-[1-(ethylsulfonyl)-4-piperidinyl]-1H-indole-7-carboxamide trifluoroacetate] | ≤ 1.5 µM | ≤ 10 µM | 
